Experimental data taken from PubChem BioAssay (NCI).
Several values for one entry are separate records, joined by “and”; a condition that tells them apart may be missing. Equal entries are not always repeated.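 Five compound concentrations were applied to cells in 96-well plates for 48 hours; endpoints were derived by simple linear interpolation of the resulting dose-response curve. Here, GI50 denotes the concentration required for 50% inhibition of growth. Definition used: TGI = concentration required for complete inhibition of growth.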

Legend:
Assay in all cases: NCI tumour cell line growth inhibition, 48 h
[1] = test system: HCT-116 colon
[2] = test system: HL-60(TB) leukemia
[3] = test system: IGROV1 ovarian
[4] = test system: M14 melanoma
[5] = test system: NCI-H23 lung
[6] = test system: NCI-H522 lung
[7] = test system: RXF 393 renal
[8] = test system: SF-539 CNS
[9] = test system: SK-MEL-28 melanoma
[10] = test system: UACC-62 melanoma

SMILES | GI50 [1] | TGI [1] | GI50 [2] | TGI [2] | GI50 [3] | TGI [3] | GI50 [4] | TGI [4] | GI50 [5] | TGI [5] | GI50 [6] | TGI [6] | GI50 [7] | TGI [7] | GI50 [8] | TGI [8] | GI50 [9] | TGI [9] | GI50 [10] | TGI [10]
COc1cc(/C=C\c2cc(OC)c(OC)c(OC)c2)cc(NS(=O)(=O)c2ccc(Cl)cc2)c1OC | 0.469 µM | > 100 µM | 0.249 µM | 0.694 µM | 0.904 µM | > 100 µM | 0.391 µM | 22.9 µM | 0.71 µM | > 100 µM | 0.209 µM | 0.87 µM | 0.272 µM | 1.24 µM | 0.303 µM | 2.58 µM | 1.14 µM | > 100 µM | 0.435 µM | 36.7 µM
CCN(CC)CCOc1ccc2c(C)c(C(=O)OC)oc2c1C(=O)/C=C/c1ccc(OC)cc1 | 57.8 µM | > 100 µM | 1.94 µM | 6.11 µM | 0.246 µM | 2.75 µM | 25.4 µM | > 48.7 µM | 2.93 µM | 8.34 µM | 4.3 µM | 15.2 µM | 13.8 µM | 31.3 µM | 16.3 µM | 32.2 µM | 2.89 µM | 11.2 µM | 2.24 µM | 7.75 µM
O=c1nc2[nH]c3c(-c4n[nH]c(=O)[nH]c4=O)cccc3c2n[nH]1 | > 100 µM | > 100 µM | > 100 µM | > 100 µM | > 100 µM | > 100 µM | > 100 µM | > 100 µM | > 100 µM | > 100 µM | > 100 µM | > 100 µM | > 100 µM | > 100 µM | > 100 µM | > 100 µM | > 100 µM | > 100 µM | > 100 µM | > 100 µM
CC(=O)OCC1OC(n2c(=S)n(-c3ccccc3)c(=O)c3cc(Br)cc(Br)c32)C(OC(C)=O)C(OC(C)=O)C1OC(C)=O (stereo unspecified) |  | > 100 µM |  | > 100 µM | 35.8 µM and > 100 µM | > 100 µM | 28.6 µM and > 100 µM | > 100 µM | 19.1 µM and 72.3 µM | 92.1 µM and > 100 µM | > 100 µM and 28.6 µM | > 100 µM and 84.7 µM | 19.4 µM and 64.2 µM | 76.3 µM and > 100 µM | 43.9 µM and > 100 µM | > 100 µM |  | > 100 µM |  | > 100 µM
Cc1ccc(S(=O)(=O)N2CCC(C(=O)O)(c3ccccc3)CC2)cc1 |  | > 100 µM |  | > 100 µM |  | > 100 µM |  | > 100 µM |  | > 100 µM |  | > 100 µM |  | > 100 µM |  | > 100 µM |  | > 100 µM |  | > 100 µM
Nc1nc(=S)c2[nH]cnc2[nH]1 | 0.336 µM |  | 0.894 µM | 9.38 µM and 17.5 µM and 2.37 µM | 3.23 µM and 6.02 µM | > 96.1 µM and 150 µM and 162 µM | 0.413 µM and 0.677 µM |  | 0.481 µM and 3.07 µM |  | 0.418 µM and 2.07 µM and 1 µM | 3.04 µM and 6.04 µM and 7.26 µM | 0.395 µM and 0.474 µM and 0.984 µM |  | 0.483 µM and 0.606 µM and 1.41 µM | 68.8 µM [middle of 4 runs] | 1.94 µM and 6.07 µM | 28.8 µM and 162 µM | 0.295 µM and 0.376 µM and 1.26 µM | 
NC(N)=N/N=C/c1c(-c2ccncc2)nc2sc(Cl)cn12 | 2.55 µM | 6.22 µM | 19 µM | 45 µM | 42.7 µM | > 100 µM | 6.54 µM | 14.7 µM | 10 µM | 24.1 µM | 10.1 µM | > 28.5 µM | 15.2 µM | 33.2 µM | 7.06 µM | 13.7 µM | 14.3 µM | 38.8 µM | 1.88 µM | 4.91 µM
CCOc1ccccc1NC(=O)C1=C(C)NC(C)=C(C(=O)Nc2ccccc2OCC)C1c1ccc([N+](=O)[O-])cc1 |  | > 100 µM |  | > 100 µM |  | > 100 µM |  | > 100 µM |  | > 100 µM |  | > 100 µM |  | > 100 µM |  | > 100 µM |  | > 100 µM |  | > 100 µM
COc1cc(N(CCC#N)CCC#N)ccc1/C(N=Nc1ccc(C(=O)O)cc1)=N/NC(=O)c1cc(Br)ccc1O | 62.8 µg/mL | > 150 µg/mL | 55.4 µg/mL | > 150 µg/mL | 78.1 µg/mL | > 150 µg/mL | 72 µg/mL | > 150 µg/mL | > 150 µg/mL | > 150 µg/mL | 110 µg/mL | > 150 µg/mL | 66.3 µg/mL | > 150 µg/mL | 85.8 µg/mL | > 150 µg/mL | > 150 µg/mL | > 150 µg/mL | 149 µg/mL | > 150 µg/mL
COC(=O)c1ccc2[nH]c(O)c(C(=Nc3ccc(N(C)C(=O)CN4CCN(C)CC4)cc3)c3ccccc3)c2c1 | 0.343 µM | 3.06 µM | 0.835 µM | 3.12 µM | 0.297 µM | 1.83 µM | 0.729 µM | 2.42 µM | 1.29 µM | 4.14 µM | 1.49 µM | 4.41 µM | 0.422 µM | 1.69 µM | 0.44 µM | 1.72 µM | 1.62 µM | 3.34 µM | 4.02 µM | 13.8 µM
COc1ccc2c(c1)[n+](=O)c(C(C)=O)c(C)n2[O-] |  | > 100 µM |  | > 100 µM |  | > 100 µM |  | > 100 µM |  | > 100 µM |  | > 100 µM |  | > 100 µM |  | > 100 µM |  | > 100 µM |  | > 100 µM
COc1ccc(C(=O)O/N=C2/CCCCC2CN(C)C)cc1 (stereo unspecified) |  | > 100 µM |  | > 100 µM |  | > 100 µM |  | > 100 µM |  | > 100 µM |  | > 100 µM |  | > 100 µM |  | > 100 µM |  | > 100 µM |  | > 100 µM
Cn1ccnc1C(=O)/C=C/c1ccc(C(=O)Nc2c(F)c(F)c(F)c(F)c2F)cc1 | 1.17 µM | 2.48 µM | 1.8 µM | 4.74 µM | 1.75 µM | 3.98 µM | 1.77 µM | 3.7 µM | 2.01 µM | 5.35 µM | 1.8 µM | 3.96 µM | 1.66 µM | 3.22 µM | 1.67 µM | 3.13 µM | 2.17 µM | 5.19 µM | 2.08 µM | 5.17 µM
COc1ccc(-c2cc(-c3ccco3)c(C#N)c(=O)[nH]2)cc1 |  | > 100 µM |  | > 100 µM |  | > 100 µM |  | > 100 µM |  | > 100 µM |  | 54 µM |  | > 100 µM |  | 53.9 µM |  | > 100 µM |  | > 100 µM
CN(C)c1ccc(C2CC(C)(O)Oc3cc4c(cc32)OCO4)cc1 (stereo unspecified) |  | > 100 µM |  | > 100 µM |  | > 100 µM |  | > 100 µM |  | > 100 µM |  | > 100 µM |  | > 100 µM |  | > 100 µM |  | > 100 µM |  | > 100 µM
